This note sets out measurements from publication PMC9052077 (Computational and Structural Biotechnology Journal, 2022).

“Also recorded” adds a separate entry of the source. Like-named read-outs stand apart in the source and are kept apart here.

This assay has as its system HK-2 cells. Put plainly: cells. Format: cell-based, human. To be noted: for IC50 value for HK-2 cells: 24 h.
[1] abbreviates: Homo sapiens, HK-2, 24 h, HK-2 cells, 24 h exposure, SRB assay, Table 1.
Setting [2] is: Homo sapiens, HK-2, read-out: Activity IC50 (μM), HK-2 cells, Table 4.
[3] abbreviates: Homo sapiens, HK-2, read-out: Activity pIC50, HK-2 cells (converted), Table 4.
Setting [4] is: Homo sapiens, HK-2, read-out: Bioactivity (μM), HK-2 cells, Table 3.

For the molecule `N.N.[Cl][Pt][Cl]` [Compound 12, Cisplatin], the “IC50 value for HK-2 cells” value (HK-2 cells, SRB assay) is recorded as “micromolar of tens digit”. Further, the IC50 was determined as 25.4 µM (HK-2 cells, 24 h exposure, SRB assay, Table 1); 25.4 µM (read-out: Activity IC50, HK-2 cells, Table 4); 25.4 µM (read-out: Bioactivity, HK-2 cells, Table 3). Moreover, the “Activity pIC50” value (HK-2 cells, Table 4) worked out at 4.59. Moreover, the “Actual value (pIC50)” value (HK-2 cells, converted from IC50 by eq 2, Table 3) is given as 4.59.

`C[C@@H]1Cc2c(Cl)cc(C(=O)N[C@@H](Cc3ccccc3)C(=O)O)c(O)c2C(=O)O1` [Compound 3, Ochratoxin A]: where the note is “HK-2 cells, SRB assay”, the “IC50 value for HK-2 cells” value is given as “micromolar of tens digit”. Also, the IC50 was 46.1 µM under setting [1], 46.1 µM under setting [2], 45.7 µM under setting [3] and 46.1 µM under setting [4].

Turning to `C[C@@H]1[C@H](O)[C@@H](C)/C=C/C=C/C=C/C=C/C=C/C=C/C=C/[C@H](O[C@@H]2O[C@H](C)[C@@H](O)[C@H](N)[C@@H]2O)C[C@@H]2O[C@](O)(C[C@@H](O)C[C@@H](O)[C@H](O)CC[C@@H](O)C[C@@H](O)CC(=O)O[C@H]1C)C[C@H](O)[C@H]2C(=O)O` [Compound 13, Amphotericin B], the “IC50 value for HK-2 cells” value (HK-2 cells, SRB assay) is on record as “unit digits”. Further, the IC50 is 3.7 µM under setting [1], 3.7 µM under setting [2], 3.72 µM under setting [3] and 3.7 µM under setting [4].

Regarding `C=CC[C@@H]1/C=C(\C)C[C@H](C)C[C@H](OC)[C@H]2O[C@@](O)(C(=O)C(=O)N3CCCC[C@H]3C(=O)O[C@H](/C(C)=C/[C@@H]3CC[C@@H](O)[C@H](OC)C3)[C@H](C)[C@@H](O)CC1=O)[C@H](C)C[C@@H]2OC` [Compound 9, Tacrolimus], the “IC50 value for HK-2 cells” value (HK-2 cells, SRB assay) is given as “micromolar of tens digit”. For the same molecule, the IC50 is, setting by setting: under setting [1], 49.4 µM; under setting [2], 49.4 µM; under setting [3], 49 µM; under setting [4], 49.4 µM.

Turning to `COc1ccnc(C[S+]([O-])c2nc3ccc(OC(F)F)cc3[nH]2)c1OC` (stereo not drawn) [Compound 11, Pantoprazole], the IC50 is, setting by setting: under setting [1], 300 µM; under setting [2], 300 µM; under setting [3], 302 µM; under setting [4], 300 µM.

Take `C/C=C(/C)C(=O)O[C@H]1C(C)=C2[C@H]([C@@H]1OC(=O)CCCCCCC)[C@@](C)(OC(C)=O)C[C@H](OC(=O)CCC)[C@@]1(O)[C@H]2OC(=O)[C@@]1(C)O` [Compound 1, Thapsigargin]: the IC50 by setting is: under setting [1], 0.18 µM; under setting [2], 0.18 µM; under setting [3], 0.182 µM; under setting [4], 0.18 µM.

Consider `C[C@@H](NCCCc1cccc(C(F)(F)F)c1)c1cccc2ccccc12` [Compound 8, Cinacalcet], for which the “IC50 value for HK-2 cells” value (HK-2 cells, SRB assay) is “micromolar of tens digit”. In addition, the IC50 runs as follows: under setting [1], 17.1 µM; under setting [2], 17.1 µM; under setting [3], 17 µM; under setting [4], 17.1 µM.

`CO[C@@]12[C@H](COC(N)=O)C3=C(C(=O)C(C)=C(N)C3=O)N1C[C@@H]1N[C@@H]12` [Compound 10, Mitomycin C]: the “IC50 value for HK-2 cells” value (HK-2 cells, SRB assay) is given as “unit digits; also recorded: micromolar of tens digit”. For the same molecule, the IC50 was 5.04 µM under setting [1], 5.04 µM under setting [2], 5.01 µM under setting [3] and 5.04 µM under setting [4].
